Assay results taken from patent publication US6723753B2, “Substituted n-benzyl-n-phenyl aminoalcohol compounds useful for inhibiting cholesteryl ester transfer protein activity” (Pharmacia Corporation, priority 2002, dated 2004).

The molecules below were run against T1, CETP (Homo sapiens, UniProt P11597) (assay: Assay of CETP Inhibition using Purified Components (Reconstituted Buffer Assay)). Settings: IC50, Inhibition of CETP activity in reconstituted buffer assay; transfer of [3H]CE from HDL to LDL.
T1 sequence (P11597 18-493): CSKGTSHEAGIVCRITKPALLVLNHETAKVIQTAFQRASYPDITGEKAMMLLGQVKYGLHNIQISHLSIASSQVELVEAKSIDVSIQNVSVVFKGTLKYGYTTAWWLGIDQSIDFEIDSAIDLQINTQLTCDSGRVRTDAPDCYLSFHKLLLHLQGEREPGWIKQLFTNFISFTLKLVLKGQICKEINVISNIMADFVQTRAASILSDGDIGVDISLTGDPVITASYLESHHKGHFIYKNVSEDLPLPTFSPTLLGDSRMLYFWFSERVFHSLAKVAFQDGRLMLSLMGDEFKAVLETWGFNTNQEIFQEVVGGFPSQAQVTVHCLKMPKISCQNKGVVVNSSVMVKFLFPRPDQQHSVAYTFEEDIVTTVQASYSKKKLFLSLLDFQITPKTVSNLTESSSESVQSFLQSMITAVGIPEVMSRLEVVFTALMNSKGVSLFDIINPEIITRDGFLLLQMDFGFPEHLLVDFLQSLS
Type: biochemical
Parameters: made in house; host or cells: CHO cells (serum-free conditioned medium)
Experimental: Assay of CETP Inhibition using Purified Components (Reconstituted Buffer Assay)
The ability of compounds to inhibit CETP activity was assessed using an in vitro assay that measured the rate of transfer of radiolabeled cholesteryl ester ([^3H]CE) from HDL donor particles to LDL acceptor particles. Details of the assay are provided by Glenn, K. C. et al. (Glenn and Melton, “Quantification of Cholesteryl Ester Transfer Protein (CETP): A) CETP Activity and B) Immunochemical Assay of CETP Protein,” Meth. Enzymol., 263, 339-351 (1996)). Human recombinant CETP can be obtained from the serum-free conditioned medium of CHO cells transfected with a cDNA for CETP and purified as described by Wang, S. et al. (J. Biol. Chem. 267, 17487-17490 (1992)). To measure CETP activity, [^3H]CE-labeled-HDL, LDL, CETP and assay buffer (50 mM tris(hydroxymethyl)aminomethane, pH 7.4; 150 mM sodium chloride; 2 mM ethylenediamine-tetraacetic acid (EDTA); 1% bovine serum albumin) were incubated in a final volume of 200 μL, for 2 hours at 37° C. in 96 well plates. […] The inhibitors were then diluted 1:1 with CETP in assay buffer, and then 25 μL of that solution was mixed with 175 μL of lipoprotein pool for assay. Following incubation, LDL was differentially precipitated by the addition of 50 μL of 1% (w/v) dextran sulfate/0.5 M magnesium chloride, mixed by vortex, and incubated at room temperature for 10 minutes. A potion of the solution (200 μL) was transferred to a filter plate (Millipore). After filtration, the radioactivity present in the precipitated LDL was measured by liquid scintillation counting.
This value was defined as the IC50.
Examples of IC50 values determined by these methods are specified in Table 9.

Structure (SMILES) | IC50 [µM]
Cc1cccc(N(Cc2cccc(C(F)(F)F)c2)CC(O)C(F)(F)F)c1 (stereo not drawn) [Example 25] | 10
OC(CN(Cc1cccc(C(F)(F)F)c1)c1cccc(C(F)(F)F)c1)C(F)(F)F (stereo not drawn) [Example 47] | 10
OC(CN(Cc1ccc(OC(F)(F)F)cc1)c1cccc(F)c1)C(F)(F)F (stereo not drawn) [Example 57] | 15
OC(CN(Cc1cccc(Oc2ccccc2)c1)c1cccc(F)c1)C(F)(F)F (stereo not drawn) [Example 64] | 15
OC(CN(Cc1ccc(-c2ccccc2)cc1)c1cccc(F)c1)C(F)(F)F (stereo not drawn) [Example 65] | 20

Same assay, conditions: Inhibition of CETP activity in reconstituted buffer assay; transfer of [3H]CE from HDL to LDL; read-out: IC50

Structure (SMILES) | IC50 [µM]
OC(CN(Cc1cccc(OC(F)(F)C(F)F)c1)c1cccc(S)c1)C(F)(F)F (stereo not drawn) [473B] | 42
OC(CN(Cc1cccc(OC(F)(F)C(F)F)c1)c1cccc(CBr)c1)C(F)(F)F (stereo not drawn) [514D] | 15
O=[N+]([O-])c1cccc(N(Cc2cccc(OC(F)(F)C(F)F)c2)CC(O)C(F)(F)F)c1 (stereo not drawn) [528B] | 11
OC(CNc1cccc(Oc2ccccc2)c1)C(F)(F)F (stereo not drawn) [588B] | > 100
CON(C)C(=O)c1cccc(CN(CC(O)C(F)(F)F)c2cccc(Oc3ccccc3)c2)c1 (stereo not drawn) [620A] | 24.6
OC(CNCc1cccc(OC(F)(F)F)c1)C(F)(F)F (stereo not drawn) [632A] | > 50
OC(CN(Cc1cccc(C(F)(F)F)c1)c1cccc(F)c1)C(F)(F)F (stereo not drawn) [Example 1, 3-[(3-fluorophenyl)[[3-(3-trifluoromethyl)phenyl]methyl]amino]-1,1,1-tri-fluoro-2-propanol] | 38
COc1cccc(N(Cc2ccc(C)cc2)CC(O)C(F)(F)F)c1 (stereo not drawn) [Example 4] | 60
Cc1ccc(N(Cc2cccc(C)c2)CC(O)C(F)(F)F)cc1 (stereo not drawn) [Example 5] | > 100
COc1ccc(N(Cc2ccc(C)cc2)CC(O)C(F)(F)F)cc1 (stereo not drawn) [Example 6] | > 100
OC(CN(Cc1ccccc1)c1ccc(Cl)cc1)C(F)(F)F (stereo not drawn) [Example 7] | > 100
Cc1ccc(CN(CC(O)C(F)(F)F)c2ccc(C)cc2)cc1 (stereo not drawn) [Example 8] | > 100
Cc1cccc(CN(CC(O)C(F)(F)F)c2cccc(Cl)c2)c1 (stereo not drawn) [Example 9] | > 100
Cc1cccc(CN(CC(O)C(F)(F)F)c2cccc(C)c2)c1 (stereo not drawn) [Example 11] | > 100
Cc1ccc(CN(CC(O)C(F)(F)F)c2cccc(C)c2)cc1 (stereo not drawn) [Example 12] | > 100
Cc1ccc(CN(CC(O)C(F)(F)F)c2ccccc2C)cc1 (stereo not drawn) [Example 13] | > 100
Cc1ccc(N(Cc2ccccc2)CC(O)C(F)(F)F)cc1 (stereo not drawn) [Example 14] | 60
Cc1ccccc1N(Cc1ccccc1)CC(O)C(F)(F)F (stereo not drawn) [Example 15] | > 100
OC(CN(Cc1ccccc1)c1cccc(Cl)c1)C(F)(F)F (stereo not drawn) [Example 16] | 60
Cc1cccc(CN(CC(O)C(F)(F)F)c2ccc(F)c(F)c2)c1 (stereo not drawn) [Example 17] | 45
OC(CN(Cc1cccc(C(F)(F)F)c1)c1ccc(F)c(F)c1)C(F)(F)F (stereo not drawn) [Example 19] | 15
COc1ccc(N(Cc2ccc(C(F)(F)F)cc2)CC(O)C(F)(F)F)cc1 (stereo not drawn) [Example 23] | 15

Structure (SMILES) | IC50 [µM]
Cc1ccc(CN(CC(O)C(F)(F)F)c2ccc(F)c(F)c2)cc1 (stereo not drawn) [Example 24] | > 100
COc1cccc(N(Cc2ccc(C(F)(F)F)cc2)CC(O)C(F)(F)F)c1 (stereo not drawn) [Example 26] | 8
Cc1cccc(CN(CC(O)C(F)(F)F)c2ccccc2C)c1 (stereo not drawn) [Example 27] | > 100
COc1ccc(N(Cc2cccc(C)c2)CC(O)C(F)(F)F)cc1 (stereo not drawn) [Example 28] | 75
Cc1ccc(CN(CC(O)C(F)(F)F)c2cc(F)cc(F)c2)cc1 (stereo not drawn) [Example 29] | > 100
OC(CN(Cc1cccc(C(F)(F)F)c1)c1cccc(Br)c1)C(F)(F)F (stereo not drawn) [Example 30] | 22
Cc1ccc(N(Cc2ccc(C(F)(F)F)cc2)CC(O)C(F)(F)F)cc1 (stereo not drawn) [Example 37] | > 100
OC(CN(Cc1cccc(C(F)(F)F)c1)c1cccc(Cl)c1)C(F)(F)F (stereo not drawn) [Example 38] | 13
Cc1cccc(N(Cc2ccc(C(F)(F)F)cc2)CC(O)C(F)(F)F)c1 (stereo not drawn) [Example 39] | 15
Cc1ccccc1N(Cc1ccc(C(F)(F)F)cc1)CC(O)C(F)(F)F (stereo not drawn) [Example 40] | > 100
OC(CN(Cc1cccc(OC(F)(F)F)c1)c1cccc(Cl)c1)C(F)(F)F (stereo not drawn) [Example 41] | 12
OC(CN(Cc1cccc(OC(F)(F)C(F)F)c1)c1cccc(I)c1)C(F)(F)F (stereo not drawn) [Example 44] | 2.7
OC(CN(Cc1cccc(F)c1)c1cccc(C(F)(F)F)c1)C(F)(F)F (stereo not drawn) [Example 46] | > 100
COc1cccc(N(Cc2cccc(C(F)(F)F)c2)CC(O)C(F)(F)F)c1 (stereo not drawn) [Example 48] | > 100
OC(CN(Cc1ccc(C(F)(F)F)cc1)c1cccc(Cl)c1)C(F)(F)F (stereo not drawn) [Example 50] | 15
COc1ccc(N(Cc2cccc(C(F)(F)F)c2)CC(O)C(F)(F)F)cc1 (stereo not drawn) [Example 51] | 20
OC(CN(Cc1cccc(C(F)(F)F)c1)c1ccc(F)c(C(F)(F)F)c1)C(F)(F)F (stereo not drawn) [Example 52] | 7
Cc1ccc(CN(CC(O)C(F)(F)F)c2ccc(F)c(C(F)(F)F)c2)cc1 (stereo not drawn) [Example 53] | 15
OC(CN(Cc1ccc(OC(F)(F)F)cc1)c1cccc(C(F)(F)F)c1)C(F)(F)F (stereo not drawn) [Example 54] | 15
OC(CN(Cc1ccc(OC(F)(F)F)cc1)c1cccc(Cl)c1)C(F)(F)F (stereo not drawn) [Example 55] | 20
OC(CN(Cc1ccc(OC(F)(F)F)cc1)c1ccc(F)c(F)c1)C(F)(F)F (stereo not drawn) [Example 56] | 20
Cc1cccc(CN(CC(O)C(F)(F)F)c2ccc(F)c(C(F)(F)F)c2)c1 (stereo not drawn) [Example 58] | 15

Structure (SMILES) | IC50 [µM]
OC(CN(Cc1ccc(OC(F)(F)F)cc1)c1ccccc1)C(F)(F)F (stereo not drawn) [Example 59] | 7
Cc1cccc(N(Cc2ccc(OC(F)(F)F)cc2)CC(O)C(F)(F)F)c1 (stereo not drawn) [Example 61] | 23
OC(CN(Cc1ccc(OC(F)(F)F)cc1)c1cccc(Br)c1)C(F)(F)F (stereo not drawn) [Example 62] | 18
Cc1cccc(CN(CC(O)C(F)(F)F)c2ccc(Cl)c(C(F)(F)F)c2)c1 (stereo not drawn) [Example 67] | 15
OC(CN(Cc1ccc(OC(F)(F)F)cc1)c1cc(F)cc(F)c1)C(F)(F)F (stereo not drawn) [Example 68] | 15
OC(CN(Cc1cccc(C(F)(F)F)c1)c1cccc(F)c1F)C(F)(F)F (stereo not drawn) [Example 69] | 20
Cc1cccc(N(Cc2cccc(OC(F)(F)F)c2)CC(O)C(F)(F)F)c1 (stereo not drawn) [Example 72] | 10
OC(CN(Cc1cccc(OC(F)(F)F)c1)c1ccccc1)C(F)(F)F (stereo not drawn) [Example 73] | 3
OC(CN(Cc1cccc(OC(F)(F)F)c1)c1ccc(F)c(F)c1)C(F)(F)F (stereo not drawn) [Example 78] | 10
OC(CN(Cc1ccc(OC(F)(F)F)cc1)c1cccc(F)c1F)C(F)(F)F (stereo not drawn) [Example 80] | 20
Cc1cccc(CN(CC(O)C(F)(F)F)c2cc(F)cc(F)c2)c1 (stereo not drawn) [Example 81] | > 100
OC(CN(Cc1cccc(Oc2ccccc2)c1)c1cccc(OC(F)(F)F)c1)C(F)(F)F (stereo not drawn) [Example 82] | 8
OC(CN(Cc1cccc(OCc2ccccc2)c1)c1cccc(OC(F)(F)F)c1)C(F)(F)F (stereo not drawn) [Example 83] | 20
OC(CN(Cc1cccc(Oc2ccccc2)c1)c1ccccc1-c1ccccc1)C(F)(F)F (stereo not drawn) [Example 85] | 80
OC(CN(Cc1cccc(Oc2ccccc2)c1)c1ccc(-c2ccccc2)cc1)C(F)(F)F (stereo not drawn) [Example 86] | 20
CCCCCCCCc1ccc(N(Cc2cccc(OC(F)(F)F)c2)CC(O)C(F)(F)F)cc1 (stereo not drawn) [Example 88] | 75
OC(CN(Cc1cccc(Oc2ccc(Cl)cc2)c1)c1cccc(Oc2ccccc2)c1)C(F)(F)F (stereo not drawn) [Example 92] | 12
OC(CN(Cc1cccc(Oc2ccc(Cl)c(Cl)c2)c1)c1cccc(Oc2ccccc2)c1)C(F)(F)F (stereo not drawn) [Example 94] | 40
OC(CN(Cc1cccc(Oc2ccc(Cl)c(Cl)c2)c1)c1cccc(OC(F)(F)F)c1)C(F)(F)F (stereo not drawn) [Example 95] | 60
COc1ccc(CN(CC(O)C(F)(F)F)c2cccc(OC(F)(F)F)c2)cc1OCc1ccccc1 (stereo not drawn) [Example 99] | > 100
